What was measured:
[1] = tested on: bovine nucleus pulposus cells; test: MTS cytotoxicity assay, bovine nucleus pulposus cells; type: cell-based; details: bovine disc cells, 24 hours incubation
Experimental: (§1) Cytotoxicity testing was carried out on precursor monomers and proteoglycan analogues via the MTS assay using a commercial Kit (MTS assay Cell titre 96® AQueous One Solution Cell Proliferation Assay). Briefly, 5×10^3 cells per well were allowed to adhere to a 96 well plate for 24 hours. The substance under test was added and incubated with the cells for 24 hours before assessment of cell activity with MTS solution. Two cell types were used: (i) L929 mouse fibroblasts (European Collection of Cell Culture: ECACC No 85011425) which are typically used in cytotoxicity tests and (ii) bovine nucleus pulposus cells, prepared by enzymatic digestion of nucleus pulposus from bovine coccygeal discs.
(§2) The individual possible components of proteoglycan analogues were tested, including: NaAMPS, KSPA, acryloyl morpholine (ACMO), glycerol, ascorbic acid, Oxone (potassium oxypersulphate), PEG diacrylate and multifunctional macromer cross-linkers. The proteoglycan analogues are exemplified by those in Tables 1 and 2.

L929 mouse fibroblasts = test: MTS cytotoxicity assay, L929 cells; type: cell-based; details: 24 hours incubation
Experimental: as §1, §2

Row | Molecule | toxicity to cells (MTS assay) [1] | toxicity to cells (MTS assay) (L929 mouse fibroblasts)
1 | O=C1O[C@H]([C@@H](O)CO)C(O)=C1O [ascorbic acid] | not to be toxic | not to be toxic
2 | potassium oxypersulphate [Oxone] | not to be toxic | not to be toxic

Reference: patent publication US20110118379A1, “INTERVERTEBRAL DISC AND INTRAOCULAR LENS” (priority 2008, published 2011)
